In patent US20050203071A1, “Use of carbon-2-modified-19-nor-vitamin d analogs to induce the formation of new bone” (priority 2003, published 2005):
Like-named read-outs stand apart in the source and are kept apart here.

Experiments:
[1] = system: human osteoblast cultures; assay: bone nodule formation in vitro in human osteoblast cultures (Von Kossa stain); type: cell-based; settings: for stimulation of osteoblast cultures to form mineralized bone, Von Kossa stain (FIG. 2): different concentrations, human osteoblast cultures
Text: Human bone samples discarded after surgical procedures from patients undergoing hip/knee replacement surgeries are obtained under an approved IRB protocol (Protocol #2001-055) and processed as described below. These bone pieces are otherwise routinely discarded as waste material during surgery.
The bone pieces are thoroughly washed and cleaned under sterile conditions using phosphate-buffered saline (PBS). These pieces are then cut to obtain smaller pieces (1-2 mm^3) and subjected to enzymatic digestion process to isolate osteoblasts as described below.
Osteoblastic cells are obtained from the bone pieces by collagenase digestion. Briefly, the bone samples are washed twice in PBS and dissected in about 1 mm^3 size fragments which are then sequentially digested in trypsin (1 mg/mL) for ten minutes, followed by dispase (2 mg/mL) for twenty minutes, and bacterial collagenase [Collagenase A] (3 mg/mL) twice for thirty minutes in PBS at 37° C. in a water bath. Cells released by collagenase digestion are then washed, counted and grown to sub-confluence in 25 cm^2 cell culture flasks in 1:1 Ham's F12/Dulbecco's modification of Eagle's medium (DMEM) supplemented with 10% fetal bovine serum. Cells are cultured at 37° C. in a humidified atmosphere of 5% CO2/95% air. Medium changes are made every 2-3 days and cells are cultured until they are 80% confluent. Cells are then trypsinized, washed and frozen from early passages for evaluation using techniques as described below.
In order to evaluate the ability of osteoblasts to form bone nodules in vitro, cells are cultured in 6 well plates at 1-3×10^5 cells/well. Cells are cultured in the presence of either 1,25-(OH)2D3 or vitamin D analogs at various doses for 7 days. Complete medium changes are carried out twice during the 7-day period and the medium is supplemented with fresh compounds (either 1,25-(OH)2D3 or 2-methylene-19-nor-(20S)-1α,25-dihydroxyvitamin D3—2MD) during each medium change. At days 10 and 13, complete medium changes are carried out and the compounds are replaced by treatment with ascorbic acid (50 μg/ml) and β-glycerol phosphate (10 mM). A third dose of ascorbic acid and β-glycerol phosphate is added to the cultures on day 15 if needed. Following the culture period, cells are stained using the Von Kossa technique. Briefly, cells are stained with 5% silver nitrate for 30 minutes in the dark, rinsed with distilled water, reduced with sodium carbonate/formaldehyde solution for 2 minutes and washed under tap water for 10 minutes. The cells are then stained with methyl green pyronin for 20 minutes, washed with water followed by two washes of absolute alcohol. […] Bone nodule formation in vitro can be assessed quantitatively by various published procedures.

ovariectomized rats = settings: ovariectomized animal/rats, cited from earlier work

Compound | change in osteoblast cultures / formation of mineralized bone (FIG. 1) ([1]; 10^−8 molar, after 14 days of incubation) | stimulation of osteoblast cultures to form mineralized bone, Von Kossa stain (FIG. 2) [1] | bone mass (ovariectomized rats) | bone mass (ovariectomized rats; listed as 2-methylene-19-nor-20S-1,25-(OH)2D3) | degree of new bone formation ([1]; concentration of 10^−12 molar)
C=C1/C(=C\C=C2/CCC[C@]3(C)[C@@H]([C@H](C)CCCC(C)(C)O)CC[C@@H]23)C[C@@H](O)C[C@@H]1O [1,25-(OH)2D3, 1α,25-dihydroxyvitamin D3, reference compound] | very little change | does not produce this effect |  |  | 
C=C1[C@H](O)CC(=C/C=C2\CCC[C@]3(C)[C@@H]([C@@H](C)CCCC(C)(C)O)CC[C@@H]23)C[C@H]1O [2MD, 2-methylene-19-nor-(20S)-1α,25-dihydroxyvitamin D3] |  | unique and strong action | markedly stimulate bone mass accumulation | increase bone mass | saturating degree of new bone formation
CC1C(O)CC(=CC=C2CCC[C@]3(C)[C@@H]([C@@H](C)CCCC(C)(C)O)CC[C@@H]23)CC1O (stereo partly drawn) [2α-methyl-19-nor-20S-1,25-(OH)2D3, 2α-methyl-19-nor-20(S)-1α,25-dihydroxyvitamin D3] |  |  | increase bone mass |  | 
